This is an account of results in PMC9993459, “A novel selective spleen tyrosine kinase inhibitor SKI-O-703 (cevidoplenib) ameliorates lupus nephritis and serum-induced arthritis in murine models” (Clinical and Experimental Immunology, 2022).

For data set [1], the target named is Jak2 (Homo sapiens, UniProt O60674). As to the kind of experiment: Kinase assay (LANCE Ultra TR-FRET), Jak2. The data set is classed as biochemical. How it is done: (§1) Kinase assays were conducted in 384-well plates using LANCE ultra 66 time-resolved fluorescence resonance energy transfer (TR-FRET) methods, according to the manufacturer’s instructions (Perkin-Elmer). In brief, each kinase was pre-incubated with a serially diluted compound for 30 min, incubated with ULight poly-GT peptide substrate and ATP for up to 1 h. Thirty minutes after adding Eu-labeled anti-phosphopeptides Ab diluted in LANCE Detection Buffer, LANCE signals were measured with an EnVision multilabel reader (Perkin-Elmer).

Data set [2] deals with AuroraB (Homo sapiens, UniProt Q96GD4). In words: Kinase assay (LANCE Ultra TR-FRET), AuroraB. Format: biochemical. How it is done: as §1
The target of data set [3] is Jak3 (Homo sapiens, UniProt P52333). In words: Kinase assay (LANCE Ultra TR-FRET), Jak3. Format: biochemical. How it is done:
as §1

Data set [4] has as its target FLT3 (Homo sapiens, UniProt P36888). In words: Kinase assay (LANCE Ultra TR-FRET), FLT3. Format: biochemical. How it is done:
as §1

Data set [5] has as its target FGFR1 (Homo sapiens, UniProt P11362). In words: Kinase assay (LANCE Ultra TR-FRET), FGFR1. The data set is classed as biochemical. How it is done: as §1
Data set [6] in a line: Aqueous solubility. Format: physicochemical. The following applies: aqueous solution.
Data set [7] relates to mouse primary B cells. In words: Annexin V/7-AAD apoptosis assay in B cells. The data set is classed as cell-based. To be noted: 24 h, effect more potent with anti-IgM than LPS. As for the experimental part: Splenic CD19^+ B cells from C57BL/6 mice were sorted by MACS (Milteny Biotec), stained with 3 μM cell proliferation dye eFluor 670 (CP670; eBioscience), and cultured for 72 h in the presence of either 10 μg/ml LPS (Sigma Aldrich) or 5 μg/ml anti-mouse IgM (Jackson Immuno Research Laboratories), 10 μg/ml anti-CD40 mAb (Biolegend) and 10 ng/ml IL-4 (Peprotech), and assayed by FACS. To detect apoptotic cells, unstimulated cells were cultured for 24 h, stained with Annexin V and 7-aminoactinomycin D (7-AAD), and assayed by FACS.
Figure 2: in vitro effects of SKI-O -703 on the proliferation, survival, and differentiation of B cells. Mouse primary B cells were labeled with CP670, and stimulated with either anti-IgM mAb, CD40L and IL-4 (A) or LPS (B) for 72 h in the presence or absence of SKI-O-703 and tofacitinib at the indicated concentrations; they were then assayed by FACS. (C and D) Mouse primary B cells were cultured as in A and B for 24 h, stained with Annexin V and 7-AAD, and assayed by FACS. Representative FACS profiles and graphs displaying mean Annexin V-positivity are shown. (E) Human primary B cells were stimulated with CpG ODN plus IL-2 (to detect IgM and IgG) or CpG ODN 2006 plus IFN-α (to detect IL-6) in the presence or absence of inhibitors. The culture supernatants were assayed by ELISA. Graphs are expressed as % positivity relative to the controls (without inhibitor). […]

Chain of Jak2 (O60674 whole entry, species assumed): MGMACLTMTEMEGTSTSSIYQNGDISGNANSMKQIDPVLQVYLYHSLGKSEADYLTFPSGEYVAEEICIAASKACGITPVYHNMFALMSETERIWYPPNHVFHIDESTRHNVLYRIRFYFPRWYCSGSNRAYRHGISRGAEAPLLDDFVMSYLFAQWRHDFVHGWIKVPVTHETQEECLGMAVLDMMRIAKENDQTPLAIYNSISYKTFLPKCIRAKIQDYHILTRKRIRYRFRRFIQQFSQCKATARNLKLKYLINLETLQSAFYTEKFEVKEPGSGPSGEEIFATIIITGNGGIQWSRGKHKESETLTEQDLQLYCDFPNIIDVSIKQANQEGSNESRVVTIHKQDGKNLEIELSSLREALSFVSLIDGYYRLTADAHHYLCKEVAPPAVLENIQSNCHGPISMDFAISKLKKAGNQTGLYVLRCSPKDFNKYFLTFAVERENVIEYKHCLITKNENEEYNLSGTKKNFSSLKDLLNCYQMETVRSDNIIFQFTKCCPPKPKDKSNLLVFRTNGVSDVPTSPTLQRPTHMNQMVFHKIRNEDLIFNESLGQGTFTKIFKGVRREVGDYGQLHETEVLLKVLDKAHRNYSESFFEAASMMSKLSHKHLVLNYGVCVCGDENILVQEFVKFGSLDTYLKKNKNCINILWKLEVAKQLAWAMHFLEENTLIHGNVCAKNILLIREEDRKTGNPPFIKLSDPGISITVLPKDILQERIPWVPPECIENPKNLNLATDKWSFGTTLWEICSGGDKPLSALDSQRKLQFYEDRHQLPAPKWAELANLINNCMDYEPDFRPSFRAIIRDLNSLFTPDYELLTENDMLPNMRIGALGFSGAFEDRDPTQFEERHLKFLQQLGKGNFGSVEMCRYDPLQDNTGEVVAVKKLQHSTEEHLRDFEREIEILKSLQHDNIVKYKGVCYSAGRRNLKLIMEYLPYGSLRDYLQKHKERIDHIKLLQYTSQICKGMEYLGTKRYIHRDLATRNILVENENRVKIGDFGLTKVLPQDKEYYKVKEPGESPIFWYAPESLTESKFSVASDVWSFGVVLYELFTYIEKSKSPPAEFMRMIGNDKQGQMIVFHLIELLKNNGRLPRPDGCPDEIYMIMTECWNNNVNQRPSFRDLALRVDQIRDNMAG
Chain of Jak3 (P52333 whole entry, species assumed): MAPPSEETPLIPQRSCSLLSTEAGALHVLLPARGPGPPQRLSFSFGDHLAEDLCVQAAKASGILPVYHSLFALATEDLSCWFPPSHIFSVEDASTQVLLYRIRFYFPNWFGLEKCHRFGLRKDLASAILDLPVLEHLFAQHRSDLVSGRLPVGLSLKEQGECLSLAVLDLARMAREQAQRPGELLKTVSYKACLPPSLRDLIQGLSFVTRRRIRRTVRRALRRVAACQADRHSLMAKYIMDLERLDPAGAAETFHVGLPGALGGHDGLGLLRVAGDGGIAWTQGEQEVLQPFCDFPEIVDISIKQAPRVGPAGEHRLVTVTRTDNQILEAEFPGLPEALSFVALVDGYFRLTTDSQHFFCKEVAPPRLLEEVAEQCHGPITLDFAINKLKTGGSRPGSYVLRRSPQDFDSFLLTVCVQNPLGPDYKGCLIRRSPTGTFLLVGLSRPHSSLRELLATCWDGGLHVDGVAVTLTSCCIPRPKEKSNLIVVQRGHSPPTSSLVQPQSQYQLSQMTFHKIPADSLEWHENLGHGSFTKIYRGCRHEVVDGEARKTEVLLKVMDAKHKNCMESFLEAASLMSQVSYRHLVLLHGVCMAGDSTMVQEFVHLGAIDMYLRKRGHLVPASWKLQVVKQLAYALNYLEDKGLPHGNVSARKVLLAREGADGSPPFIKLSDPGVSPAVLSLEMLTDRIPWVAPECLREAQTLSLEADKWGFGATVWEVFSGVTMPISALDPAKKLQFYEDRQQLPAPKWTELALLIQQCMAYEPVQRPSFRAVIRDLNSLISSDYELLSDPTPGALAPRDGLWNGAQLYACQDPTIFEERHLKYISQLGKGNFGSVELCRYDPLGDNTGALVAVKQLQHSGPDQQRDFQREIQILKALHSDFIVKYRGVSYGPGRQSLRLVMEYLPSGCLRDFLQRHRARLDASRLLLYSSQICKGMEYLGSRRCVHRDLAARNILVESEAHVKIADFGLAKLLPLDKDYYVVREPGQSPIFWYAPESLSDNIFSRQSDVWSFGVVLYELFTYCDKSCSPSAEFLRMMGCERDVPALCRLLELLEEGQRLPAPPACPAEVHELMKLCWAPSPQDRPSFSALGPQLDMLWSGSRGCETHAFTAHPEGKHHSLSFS
Chain of FGFR1 (P11362 22-822, species assumed): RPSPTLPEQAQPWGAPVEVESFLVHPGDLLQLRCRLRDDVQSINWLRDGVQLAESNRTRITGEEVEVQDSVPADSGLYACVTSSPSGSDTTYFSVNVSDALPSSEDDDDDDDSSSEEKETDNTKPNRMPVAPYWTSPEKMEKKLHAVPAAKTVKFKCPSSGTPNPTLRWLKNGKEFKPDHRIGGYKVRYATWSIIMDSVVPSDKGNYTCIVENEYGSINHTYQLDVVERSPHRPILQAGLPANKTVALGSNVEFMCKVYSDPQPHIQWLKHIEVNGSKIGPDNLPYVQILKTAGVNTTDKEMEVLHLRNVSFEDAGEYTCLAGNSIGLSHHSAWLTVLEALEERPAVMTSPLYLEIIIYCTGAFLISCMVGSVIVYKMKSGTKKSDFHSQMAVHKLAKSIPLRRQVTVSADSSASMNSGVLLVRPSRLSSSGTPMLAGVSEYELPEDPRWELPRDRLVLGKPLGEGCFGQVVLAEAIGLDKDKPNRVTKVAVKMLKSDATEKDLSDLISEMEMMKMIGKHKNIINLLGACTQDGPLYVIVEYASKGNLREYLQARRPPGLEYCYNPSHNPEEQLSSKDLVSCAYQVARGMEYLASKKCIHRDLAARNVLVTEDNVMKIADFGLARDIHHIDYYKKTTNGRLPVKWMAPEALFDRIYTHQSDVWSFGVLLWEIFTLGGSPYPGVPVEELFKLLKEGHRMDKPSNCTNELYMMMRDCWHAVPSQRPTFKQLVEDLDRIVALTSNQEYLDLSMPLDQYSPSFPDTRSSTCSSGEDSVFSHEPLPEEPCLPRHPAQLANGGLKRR
Chain of FLT3 (P36888 27-993, species assumed): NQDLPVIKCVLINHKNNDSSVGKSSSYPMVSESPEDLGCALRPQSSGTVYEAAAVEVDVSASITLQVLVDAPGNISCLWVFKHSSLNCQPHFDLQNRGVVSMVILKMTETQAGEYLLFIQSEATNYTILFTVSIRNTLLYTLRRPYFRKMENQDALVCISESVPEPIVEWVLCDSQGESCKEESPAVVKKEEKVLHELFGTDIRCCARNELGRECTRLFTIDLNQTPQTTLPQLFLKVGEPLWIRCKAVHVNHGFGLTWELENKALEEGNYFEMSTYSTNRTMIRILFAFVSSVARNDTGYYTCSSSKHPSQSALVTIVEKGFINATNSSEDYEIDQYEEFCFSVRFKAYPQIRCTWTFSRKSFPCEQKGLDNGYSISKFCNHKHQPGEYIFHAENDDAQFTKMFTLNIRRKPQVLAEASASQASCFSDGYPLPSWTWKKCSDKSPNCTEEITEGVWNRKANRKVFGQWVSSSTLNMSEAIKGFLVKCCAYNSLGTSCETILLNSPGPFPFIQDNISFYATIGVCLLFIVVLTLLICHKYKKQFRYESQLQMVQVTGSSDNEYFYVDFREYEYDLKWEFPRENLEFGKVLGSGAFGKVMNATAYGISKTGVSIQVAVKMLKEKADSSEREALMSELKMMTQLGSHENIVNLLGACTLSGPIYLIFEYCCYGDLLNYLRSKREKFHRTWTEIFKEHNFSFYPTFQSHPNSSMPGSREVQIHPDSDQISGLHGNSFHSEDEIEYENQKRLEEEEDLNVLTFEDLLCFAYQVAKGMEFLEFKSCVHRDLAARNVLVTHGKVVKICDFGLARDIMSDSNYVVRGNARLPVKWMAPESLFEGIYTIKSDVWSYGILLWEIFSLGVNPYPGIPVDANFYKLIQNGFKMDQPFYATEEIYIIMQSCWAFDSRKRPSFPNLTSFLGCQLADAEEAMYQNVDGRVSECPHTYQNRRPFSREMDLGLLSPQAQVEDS
Chain of AuroraB (Q96GD4 whole entry): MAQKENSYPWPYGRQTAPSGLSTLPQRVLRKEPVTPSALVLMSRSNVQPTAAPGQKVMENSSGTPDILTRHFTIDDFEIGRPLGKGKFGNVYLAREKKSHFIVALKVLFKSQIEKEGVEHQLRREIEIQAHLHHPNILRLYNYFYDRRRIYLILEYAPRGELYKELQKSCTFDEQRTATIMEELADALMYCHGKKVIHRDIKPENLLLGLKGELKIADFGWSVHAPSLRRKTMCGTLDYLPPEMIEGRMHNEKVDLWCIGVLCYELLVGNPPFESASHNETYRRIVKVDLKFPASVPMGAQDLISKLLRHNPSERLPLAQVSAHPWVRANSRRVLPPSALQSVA

Take `Cc1nn(-c2ccnc(Nc3ccc4c(c3)c(C(=O)C3CC3)cn4C)n2)cc1CN1C[C@H](O)CO1` [SKI-O-592]: the “Ratio to Syk (Jak2)” value in data set [1] (IC50 ratio to Syk) was 302. The IC50 was 1.86 µM in data set [1] (kinase activity, TR-FRET); above 10 µM in data set [2] (kinase activity, TR-FRET); 5.81 µM in data set [3] (kinase activity, TR-FRET); 1.78 µM in data set [4] (kinase activity, TR-FRET); 17 µM in data set [5] (kinase activity, TR-FRET). Besides, the “Ratio to Syk (AuroraB)” value in data set [2] (IC50 ratio to Syk) is on record as above 1623. Besides, the “Ratio to Syk (Jak3)” value in data set [3] (IC50 ratio to Syk) turned out to be 943. Besides, the “Ratio to Syk (FLT3)” value in data set [4] (IC50 ratio to Syk) worked out at 289. Moreover, the “Ratio to Syk (FGFR1)” value in data set [5] (IC50 ratio to Syk) amounted to 2753.
With `CS(=O)(=O)O.CS(=O)(=O)O.Cc1nn(-c2ccnc(Nc3ccc4c(c3)c(C(=O)C3CC3)cn4C)n2)cc1CN1C[C@H](O)CO1` [SKI-O-703, (S)-cyclopropyl(5-((4-(4-((4-hydroxyisoxazolidin-2-yl)methyl)-3-methyl-1H-pyrazol-1-yl)pyrimidin-2-yl)amino)-1-methyl-1H-indol-3-yl)methanone dimesylate], in data set [6], the Solubility result is “soluble in aqueous solution”. Moreover, the “Proportions of early and late apoptotic B cells” value in data set [7] is “increased the proportions of early and late apoptotic cells”.
